Reference: PMC12414870, “First‐in‐class inhibitors of SbnA reduce siderophore production in Staphylococcus aureus” (The Febs Journal, 2025)

Legend:
[1] = test system: N[C@@H](COP(=O)(O)O)C(=O)O; experiment: purified protein; conditions: co-substrate L-Glu 0.1-150 mM, 50 mM HEPES pH 7.8, 1 mM TCEP, 25 °C
SbnA [2] = target: T1, SbnA (Staphylococcus aureus, UniProt A6QDA0); experiment: PNP-coupled continuous assay (MESG, […] nm); format: biochemical
T1 construct: synthetic codon-optimised gene in pSH21p::TrxA, His-Trx tag with TEV site, tag cleaved and removed; expressed in E. coli BL21 ArcticExpress (DE3)
T1 sequence (A6QDA0 whole entry): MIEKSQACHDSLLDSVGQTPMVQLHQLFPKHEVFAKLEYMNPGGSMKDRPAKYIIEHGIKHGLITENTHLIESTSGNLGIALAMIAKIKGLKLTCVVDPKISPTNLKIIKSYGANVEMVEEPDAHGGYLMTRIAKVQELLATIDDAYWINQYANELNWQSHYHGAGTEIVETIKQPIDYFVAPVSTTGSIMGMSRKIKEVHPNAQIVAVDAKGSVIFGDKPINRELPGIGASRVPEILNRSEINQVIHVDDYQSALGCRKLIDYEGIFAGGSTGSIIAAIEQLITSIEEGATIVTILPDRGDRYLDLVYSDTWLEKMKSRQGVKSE

SbnA [3] = target: T1, SbnA; experiment: PNP-coupled continuous assay (MESG, […] nm), global fit; format: biochemical
SbnA [4] = target: T1, SbnA; experiment: PNP-coupled continuous assay, global fit to ping-pong with substrate inhibition; format: biochemical; conditions: substrate inhibition (unproductive binding to internal aldimine); 0.035-0.720 mM L-OPS; 50 mM HEPES pH 7.8, 1 mM TCEP, 25 °C

Molecule | IC50 (SbnA [2]) [µM] | Ki (SbnA [3]) [µM] | also measured
SbnA (Staphylococcus aureus subsp. aureus str. Newman) |  |  | Km [1]: 27 ± 6 µM; kcat/Km [1]: 170000 M⁻¹ s⁻¹
O=C(O)CC(C(=O)O)c1ccccc1 (racemic) [compound 2, 2-phenylsuccinic acid] | 366 ± 37 | 124 ± 13 | 
O=C(O)/C=C(\C(=O)O)c1ccccc1 [compound 3, Z-2-phenylbut-2-enedioic acid] | 37 ± 3 | 16 ± 2 | 
N[C@@H](CCC(=O)O)C(=O)O [L-glutamate] |  |  | Ki (SbnA [4]): 25750 ± 7930 µM
O=C(O)CC(O)(CC(=O)O)C(=O)O [citrate] | 800 ± 100 | 900 ± 200 | 
O=C(O)CCC(=O)C(=O)O [α-ketoglutarate] | 2600 ± 200 |  | 
